# Where “and” joins values, the source holds several entries; their conditions need not be identical. Identical values can stand only once. Calls of active or inactive are those of the source. No rule for the calls is given here.
# Assay: non-covalent RecA intein splicing inhibitors, dose response, biochemical, cell-free, fluorescence, secondary screen (AID 449750)
row,SMILES,AC50
1,Cc1ccccc1NC1=C(Cl)C(=O)OC1OC(=O)c1ccco1 (configuration not stated),> 38 µM (inactive)
2,Cc1noc(C)c1CSCC(=O)Oc1ccc(N(C)S(=O)(=O)c2ccccc2)cc1,> 38 µM (inactive)
3,Cc1ccccc1N1C(=O)c2ccccc2C1Nc1cccnc1 (configuration not stated),> 38 µM (inactive)
4,CC(=O)N(C)C1=C(N2CCOCC2)C(=O)c2ccccc2C1=O,15.7 µM
5,O=C(O)c1ccc(NC2=C(n3nnc4ccccc43)C(=O)c3ccccc3C2=O)cc1,3.84 µM
6,COC(CN(C(=O)CCl)C(C(=O)NC1CCCCC1)c1ccc(C)cc1)OC (configuration not stated),17.9 µM
7,CN(C)CCSc1nnc2[nH]c3ccccc3c2n1,> 38 µM (inactive)
8,Cc1ccc(-c2cc(=O)[nH][nH]2)c(C)c1,34.3 µM
9,CC1(C)CC(CCNC(=O)CCl)(c2ccccc2)CCO1 (configuration not stated),21.3 µM
10,Cc1cccc(CN2CCN(C(=O)CCl)CC2)c1,34.1 µM
11,CCOC(=O)C1CCN(C(=O)c2c(C)oc3c2C(=O)c2ccccc2C3=O)CC1,21 µM
12,O=C(Nc1cccc(OC(=O)c2ccco2)c1)c1ccco1,> 38 µM (inactive)
13,COc1ccc(C(O)c2nccc3cc(OC)c(OC)cc23)cc1OC (configuration not stated),> 38 µM (inactive)
14,CSc1nnc(NC(=O)c2nc(S(=O)(=O)Cc3ccc(C)cc3)ncc2Cl)s1,> 38 µM (inactive)
15,Cc1cc(C(c2ccc(O)cc2)c2cc(C)c(O)cc2C)c(C)cc1O,4.95 µM
16,CC(=O)Nc1cccc(NC(=O)CSc2ncc(C(=O)Nc3ccccc3)c(=O)n2C)c1,> 38 µM (inactive)
17,Cc1[nH]nc2c1C(c1ccco1)C(C#N)=C(N)O2 (configuration not stated),> 38 µM (inactive)
18,O=C1/C(=C/c2ccc3c(c2)OCO3)CCC/C1=C\c1ccc2c(c1)OCO2,> 38 µM (inactive)
19,CCc1[nH]nc2c1C(c1ccc(C)o1)C(C#N)=C(N)O2 (configuration not stated),> 38 µM (inactive)
20,CCCc1noc2c1C(c1ccoc1)C(C#N)=C(N)N2 (configuration not stated),> 38 µM (inactive)
21,COc1cc(/C=C2\C(=O)N(c3ccc(NC(C)=O)cc3)N=C2c2ccccc2)ccc1O,> 38 µM (inactive)
22,CCCCCCCCCCCCCCCCn1cc[n+](C)c1,7.12 µM and 7.27 µM

row,SMILES,AC50
1,O=C(Nc1ccc(N2CCOCC2)cc1)Nc1ccc2nsnc2c1,> 38 µM (inactive)
2,CCCc1[nH]nc2c1C(c1ccccc1OC)C(C#N)=C(N)O2 (configuration not stated),> 38 µM (inactive)
3,Cc1ccccc1CS(=O)(=O)c1ncc(Cl)c(C(=O)Nc2ccc(F)cc2)n1,> 38 µM (inactive)
4,O=C(Cc1cc(=O)[nH][nH]1)N/N=C/c1c(F)cccc1Cl,30.7 µM
5,Cc1nnc(NC(=O)c2nc(S(=O)(=O)Cc3ccccc3C)ncc2Cl)s1,> 38 µM (inactive)
6,COc1ccc(C2=NN(C(=O)/C=C/c3ccccc3)C(c3ccccc3)C2)c(OC(C)=O)c1 (configuration not stated),2.24 µM
7,Cc1[nH]n(-c2ccccc2)c(=O)c1C(c1ccc(O)c([N+](=O)[O-])c1)c1c(C)[nH]n(-c2ccccc2)c1=O,2.77 µM
8,Cn1c(SCC(=O)NCc2ccc(F)cc2)nc2ccccc21,> 38 µM (inactive)
9,Cc1noc2ncnc(Sc3ccccc3Cl)c12,> 38 µM (inactive)
10,Cc1cnnn1-c1ccc(C(=O)CCl)cc1,> 38 µM (inactive)
11,Cc1ccc(N2C(=O)C(Cl)=C(NCCO)C2=O)c(C)c1,> 38 µM (inactive)
12,Cc1ccc(NC2=C(N3CCOCC3)C(=O)c3ccccc3C2=O)cc1,11.3 µM
13,FC(F)(F)c1nnc(-c2ccccc2)nc1Oc1ccc(Cl)cc1Cl,> 38 µM (inactive)
14,COC(=O)COc1ccc(C(c2c(C)[nH][nH]c2=O)c2c(C)[nH][nH]c2=O)cc1,13 µM
15,CCOC(=O)c1c(CSC(=N)N)n(-c2ccc(C)cc2)c2cc(Br)c(OC(C)=O)cc12,8.36 µM
16,O=C(Cc1ccccc1)c1c[nH]c(C(=O)C(Cl)(Cl)Cl)c1,38.1 µM
17,N#CC1=C(N)N(c2ccccc2)C(c2cccc([N+](=O)[O-])c2)C1(C#N)C#N (configuration not stated),> 38 µM (inactive)
18,O=C1Cc2ccccc2C(=O)N1Cc1ccccc1,> 38 µM (inactive)
19,O=C(CCl)Nc1sccc1C(=O)c1ccccc1,14 µM
20,O=c1cc(-c2ccc(C3CCCCC3)cc2)[nH][nH]1,7.41 µM
21,Cc1cccc(CSC(Nc2ccc(F)cc2)=C(C#N)C#N)c1,> 38 µM (inactive)
22,O=C1C(=O)c2ccccc2-c2ccccc21,16.8 µM

row,SMILES,AC50
1,COc1ccc(C2CC(c3cccs3)=NN2C(=O)CSC2=NCCS2)cc1 (configuration not stated),38.2 µM
2,Cc1cc(C(=O)CCl)c(C)n1CC1COc2ccccc2O1 (configuration not stated),19.4 µM
3,O=Cc1ccc(Sc2nnc(-c3ccccc3)o2)c([N+](=O)[O-])c1,21 µM
4,O=C(CCl)N1N=C(c2cccs2)CC1c1ccco1 (configuration not stated),5.44 µM
5,c1cc2cn[nH]c2cc1NC1CCCCCC1,36.2 µM
6,O=[N+]([O-])c1cc([N+](=O)[O-])c2oc(-c3ccccc3)c(Br)c2c1O,2.04 µM
7,CC(C)(C)OC(=O)N1CC=C2C(C#N)=C(N)C(C#N)(C#N)C(c3cccs3)C2C1 (configuration not stated),> 12 µM (inactive)
8,CCS(=O)(=O)c1ncc(Cl)c(C(=O)Nc2ccc(C)cc2)n1,> 38 µM (inactive)
9,Cn1c(SCC(=O)NCC2CCCO2)ncc(C(=O)Nc2ccc(Cl)cc2)c1=O (configuration not stated),> 38 µM (inactive)
10,Fc1ccc(-[n+]2nc(Nc3ccccc3)sc2-c2c3ccccc3cc3ccccc23)cc1,12.4 µM
11,Cc1ccccc1NC(=O)C(=Cc1ccc(C(=O)O)cc1)C(=O)Nc1ccccc1C,> 38 µM (inactive)
12,CCOC(=O)CN1C(=O)N[C@@H](c2cccc(C(F)(F)F)c2)C(C(C)=O)=C1C,> 38 µM (inactive)
13,NS(=O)(=O)c1ccc(N=Nc2ccc(=O)[nH]c2O)cc1,24.6 µM
14,N#C/C(=C\c1ccc(O)c([N+](=O)[O-])c1)c1nc2ccccc2s1,33.8 µM
15,O=c1[nH]c(N2CCOCC2)cc2ccccc12,> 38 µM (inactive)
16,O=C(c1cccs1)[C@@H]1[C@@H]2C(=O)N(Cc3ccc4c(c3)OCO4)C(=O)[C@@H]2C2c3ccccc3C=CN21 (some centres not stated),3.81 µM
17,O=C1/C(=C\c2cccc(O)c2O)SC(=S)N1Cc1ccccc1,> 38 µM (inactive)
18,CCC(C)NC(=O)c1c(N)n(Cc2ccc3c(c2)OCO3)c2nc3ccccc3nc12 (configuration not stated),26.7 µM
19,O=C1CC(c2cccnc2)=NN1c1ccccc1,> 38 µM (inactive)
20,O=C(N/N=C\c1ccc(-c2ccccc2[N+](=O)[O-])o1)C1COc2ccccc2O1 (configuration not stated),8.06 µM
21,CCN(CCN(C)C)C(=O)c1ccc2c(c1NCCO)C(=O)c1ccccc1C2=O,> 38 µM (inactive)
22,CCN(Cc1ccc(OC)c(F)c1)C(=O)CCl,11.9 µM

row,SMILES,AC50
1,O=C(N/N=C/c1ccc(OC(=O)c2ccco2)cc1)c1ccc[n+]([O-])c1,> 38 µM (inactive)
2,CCOC(=O)CC1=NN(c2ccccc2)C(=O)C1,36 µM
3,CC1C(=O)C(C)C(c2cc(Cl)ccc2O)NC1c1cc(Cl)ccc1O (configuration not stated),5.18 µM
4,CCC1=Nc2cc(C(=O)NCCN3CCCC3)ccc2Sc2ccccc21,> 38 µM (inactive)
5,O=C1C=C(N(CCO)Cc2ccccc2)c2ccccc2C1=O,4.49 µM
6,O=C(CCl)Nc1cc(-c2ccccc2)nn1-c1ccccc1,9.05 µM
7,OCCN(CCO)c1ccc(C(c2ccccc2Cl)c2ccc(N(CCO)CCO)cc2Cl)c(Cl)c1,4.12 µM
8,COCCN(C(=O)CCl)C(C(=O)NC1CCCCC1)c1ccccc1C (configuration not stated),8.09 µM
9,O=C(NC1CCCC1)C(c1ccc(F)cc1)N(Cc1ccc(F)cc1)C(=O)CCl (configuration not stated),2.96 µM
10,Cc1ccccc1C(CC(=O)c1cccs1)C(C#N)C#N (configuration not stated),6.53 µM
11,CCO/C=C1/C(=O)N(Cc2ccccc2)C(=O)c2ccccc21,> 38 µM (inactive)
12,Cc1nn(Cc2ccccc2)c2c1C(c1cccnc1)C(C#N)=C(N)O2 (configuration not stated),> 38 µM (inactive)
13,Cc1cccc(N2CC(C(=O)OCC(=O)c3ccc(OC(=O)c4cccs4)cc3)CC2=O)c1C (configuration not stated),> 38 µM (inactive)
14,Cc1ccc(/C=C2\SC(N3CCN(C(c4ccccc4)c4ccccc4)CC3)=NC2=O)o1,4.48 µM
15,O=C(NC1C(=O)NNC1c1ccccc1)c1ccccc1 (configuration not stated),> 38 µM (inactive)
16,CC1=NN(c2ccccc2)C(=O)/C1=C\c1cn(C)c2ccccc12,> 38 µM (inactive)
17,Cc1ccc(C2C(C#N)=C(N)Oc3n[nH]c(-c4cccs4)c32)cc1 (configuration not stated),15.3 µM
18,CCCC1C(C#N)=C(N)Oc2n[nH]c(C(C)(C)C)c21 (configuration not stated),1.7 µM
19,Cc1ccc(CNC(=O)CCN2C(=O)[C@@H]3Cc4ccccc4CN3C2=O)cc1,> 38 µM (inactive)
20,COc1cc(/C=N/NC(=S)Nc2cccc(Cl)c2C)ccc1OCC(=O)N1CC(C)OC(C)C1 (configuration not stated),> 38 µM (inactive)
21,Cn1cnc([N+](=O)[O-])c1S(=O)(=O)c1cccc(Cl)c1,30 µM
22,N=C1/C(=C\c2ccc(OC(=O)c3ccc(F)cc3)cc2)C(=O)N=C2SC(N3CCOCC3)=NN12,> 38 µM (inactive)

row,SMILES,AC50
1,COc1ccc(C(=O)Nc2ccc(O)c3ccccc23)cc1,3.85 µM
2,CC(=O)N(C1=C(Cl)C(=O)c2ccccc2C1=O)C1CCCCC1,2.79 µM
3,O=S(=O)(Nc1c(O)ccc2ccccc12)c1ccc(F)cc1,13.3 µM
4,CCc1nc(N2CCN(C(=O)CCl)CC2)c2c3c(sc2n1)CC(C)CC3 (configuration not stated),2 µM
5,COc1ccc(OC)c(Nc2cc3ccccc3c(=O)[nH]2)c1,1.92 µM
6,O=C1CCN(N=Nc2cccc(Cl)c2)N1,> 38 µM (inactive)
7,Cc1ccc2c(c1)c1c(n2CC(O)CN2CCCCCC2)CCCC1 (configuration not stated),> 38 µM (inactive)
8,N#CC1(NC(=O)COC(=O)c2cc(O)c3ccccc3c2O)CCCCC1,10.2 µM
9,CCOC(=O)c1cc(C)sc1NC(=O)CSC1=NCCS1,19.6 µM
10,Cc1cccc(CS(=O)(=O)c2ncc(Cl)c(C(=O)Nc3ccc(F)cc3)n2)c1,> 38 µM (inactive)
11,O=[N+]([O-])c1cc([N+](=O)[O-])c2c(=Nc3ccccc3)n(-c3ccccc3)n(O)c2c1,21.7 µM
12,CCCc1[nH]nc2c1C(c1ccc(OC)cc1OC)C(C#N)=C(N)O2 (configuration not stated),32.3 µM
13,O=C1N=NC2=C1c1c3ccccc3c(O)n1CC2,3.03 µM
14,Cc1nc2ccccc2c2c1C(=O)NC2=O,> 38 µM (inactive)
15,CCOC(=O)CSCC(=O)N1N=C(c2cccs2)CC1c1ccc(F)cc1 (configuration not stated),16.9 µM
16,COc1cc(/C=C(\C#N)c2nc3ccccc3o2)ccc1O,> 38 µM (inactive)
17,COCc1[nH]nc2c1C(c1ccc(OC)c(OC)c1)C(C#N)=C(N)O2 (configuration not stated),> 38 µM (inactive)
18,Cn1c(=O)c([N+](=O)[O-])c(-n2cnc3ccccc32)c2ccccc21,> 38 µM (inactive)
19,COc1ccccc1NC(=O)C1=C(C)Nc2nnnn2C1c1ccncc1 (configuration not stated),> 38 µM (inactive)

# From PubChem BioAssay AID449750 (Broad Institute, 2010)
